Source: patent US12304909B2, “Compounds and their use in therapy” (IMPERIAL COLLEGE INNOVATIONS LIMITED, priority 2018, dated 2025)
pEC50, pIC50: −log10 of the molar value. Several values for one entry are separate records, joined by “and”; a condition that tells them apart may be missing. Equal values may be shown once. Read-outs that look alike come from different tables or passages of the source.

Legend:
[1] = biological target: T1, human NMT1 (HsNMT1) (Homo sapiens, UniProt P30419); assay: HsNMT1 IC50, fluorescence-based assay detecting CoA with CPM; assay type: biochemical
T1 sequence (P30419 1-496): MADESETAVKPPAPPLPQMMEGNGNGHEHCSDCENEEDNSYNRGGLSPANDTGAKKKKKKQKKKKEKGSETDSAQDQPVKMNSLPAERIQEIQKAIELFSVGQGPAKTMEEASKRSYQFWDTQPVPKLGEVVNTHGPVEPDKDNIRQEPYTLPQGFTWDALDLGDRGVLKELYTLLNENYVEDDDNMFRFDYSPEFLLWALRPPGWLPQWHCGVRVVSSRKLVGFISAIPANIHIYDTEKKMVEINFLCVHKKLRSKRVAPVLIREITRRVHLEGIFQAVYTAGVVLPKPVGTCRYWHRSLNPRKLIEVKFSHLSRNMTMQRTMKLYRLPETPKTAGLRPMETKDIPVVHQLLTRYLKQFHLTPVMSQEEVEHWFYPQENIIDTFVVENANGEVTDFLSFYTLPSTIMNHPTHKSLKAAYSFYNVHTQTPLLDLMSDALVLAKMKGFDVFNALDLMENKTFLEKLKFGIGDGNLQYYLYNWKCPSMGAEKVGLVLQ
Description: The IC50 values for human NMT1 (HsNMT1) of four Example compounds of the invention described above (Examples 1-4) and six comparative examples (Comparative Examples 1, 2, 3, 4, 5 and 6) were measured using a sensitive fluorescence-based assay based on detection of CoA by 7-diethylamino-3-(4-maleimido-phenyl)-4-methylcoumarin, as described in Goncalves, V., et al., Analytical Biochemistry, 2012, 421, 342-344 and Goncalves, V., et al., J. Med. Chem, 2012, 55, 3578.

[2] = system: MRC5 cells; assay: Metabolic activity assay (MTS assay), MRC5; assay type: cell-based, human
Description: (§1) Example NMT inhibitors of the present invention were tested for activity in an in vitro metabolic activity assay using the human cell line MRC5. Comparative Examples 1, 2, 3, 4, 5 and 6 were also tested in the same metabolic activity assay. Compounds having activity in inhibiting metabolic activity in the assay are expected to be useful as agents for preventing and/or treating cancer, by virtue of being inhibitors of human NMT1 and/or NMT2.
MRC5 cells (obtained from Dr David Mann's group, Imperial College; cell type: fibroblasts cells which derive from normal lung tissue) were grown in DMEM media (supplemented with 10% FBS) and were seeded in a 96-well plate, 24 h prior to treatment. Cell suspensions were prepared by adjusting the cell density to the appropriate concentration (as stated in the Table 1 below) and 50 μL of the cell suspension was transferred to wells B-G in columns 2-11 of a 96-well plate.
100 μL of growth media (DMEM media) containing 0.2% DMSO was added to wells B-G in columns 2 and 11 as positive controls, and 100 μl of growth media containing Puromycin (3 μg/mL; final concentration in the plate 2 μg/mL) was added to wells B-G in column 3 as a negative control. Seven concentrations of NMT inhibitor stock solution were prepared for each Example (Example 1 and 2) and each Comparative Example (Comparative Examples 1, 2, 3, 4, 5 and 6) tested (same final percentage of DMSO, dilution factor=3 starting from 15 μM or 150 μM). 100 μL of inhibitor stock solution was added to wells B-G in columns 4-10 of a 96-well plate (final concentration of Example compound or Comparative Example compound in the plate starting from 10 μM or 100 μM; total volume in each well was 150 μL). The plate was incubated at 37° C. with 5% CO2 level.
After 72 h, 20 μL MTS reagent (Promega, prepared according to the supplier protocol) was added to each well of the 96-well plate. The plate was incubated at 37° C. for 2 h and the absorbance per well was measured at 490 nm with an EnVision plate reader. The average absorbance value of the negative control (Puromycin-treated cells) was subtracted from each value and the metabolic activity was calculated as a percentage relative to the positive control (DMSO-treated cells). EC50 values were calculated using GraphPad.

[3] = system: MDA MB 231 cells; assay: CellTiter-Blue assay, MDA MB 231; assay type: cell-based, human
Description: as §1, with “in” for “in an”, “CellTiter-Blue® assays” for “metabolic activity assay”, “MDA MB 231, LY 12318, or BL-41.” for “MRC5.”, “1” for “1, 2, 3, 4, 5”, “2” for “6”, “assays.” for “metabolic activity assay.”
(§2) MDA MB 231 cells (obtained from Professor Eric Aboagye, Hammersmith Hospital; cell type: triple negative breast cancer) were grown in low glucose DMEM in 5% CO2 media (supplemented with 10% FBS); LY 12318 cells (obtained from Dr Martin Janz, Max Delbrueck Center; cell type: B cell lymphoma patient derived xenograft) were grown in DMEM media (supplemented with 10% FBS); and BL-41 cells (obtained from Cell Services at the Crick Institute; cell type: Burkitt's Lymphoma) were grown in RPMI-1640 media in 5% CO2 (supplemented with 10% FBS). The MDA MB 231 cells, LY 12318 cells or BL-41 cells were seeded in 96-well plates, 24 h prior to treatment. Cell suspensions were prepared by adjusting the cell density to the appropriate concentration (as stated in the Table 2 below) and 50 μL of the cell suspension was transferred to wells B-G in columns 2-11 of a 96-well plate.
(§3) Twenty-four hours later, 50 μl of growth media (low glucose DMEM in 5% CO2 media supplemented with 10% FBS for MDA MB 231 cells; DMEM media in 5% CO2 supplemented with 10% FBS for LY 12318 cells; or RPMI-1640 media supplemented with 10% FBS for BL-41 cells) containing 0.0004% DMSO (positive control), a mix of Puromycin and Staurosporine (negative controls, final concentration 2 μg/mL and 1 μM respectively) or different concentrations of each Example (Example 1 and 2) or each Comparative Example (Comparative Example 1 and 2) (dilution factor=3, starting at […], final concentration in the plate starting from 10 μM) were prepared and added to a well of the 96-well plate. The plate was incubated at 37° C. with 5% CO2 level.
(§4) 72 hours later, 20 μl/well CellTiter-Blue® (G8081, Promega) were added to the plates according to the manufacturer's protocol, the plate was incubated at 37° C. for 4 h for MDA MB 231 cells and BL-41 cells, or 3 h for LY 12318 cells, followed by measuring the absorbance per well at 570 nm using an EnVision plate reader. The negative control values were subtracted from every value. The metabolic activity was calculated as a percentage relative to the positive control. The EC50 values were calculated using GraphPad Prism.

[4] = system: LY 12318 cells; assay: CellTiter-Blue assay, LY 12318; assay type: cell-based, human; conditions: 72 h, read-out: LY12318 EC50
Description: as §1, with “in” for “in an”, “CellTiter-Blue® assays” for “metabolic activity assay”, “MDA MB 231, LY 12318, or BL-41.” for “MRC5.”, “1” for “1, 2, 3, 4, 5”, “2” for “6”, “assays.” for “metabolic activity assay.”
as §2, §3, §4

[5] = system: BL-41 cells; assay: CellTiter-Blue assay, BL-41; assay type: cell-based, human
Description: as §1, with “in” for “in an”, “CellTiter-Blue® assays” for “metabolic activity assay”, “MDA MB 231, LY 12318, or BL-41.” for “MRC5.”, “1” for “1, 2, 3, 4, 5”, “2” for “6”, “assays.” for “metabolic activity assay.”
as §2, §3, §4

[6] = Rat hepatocyte half life; assay type: in vitro ADME, Sprague-Dawley rats; conditions: pooled cryopreserved rat hepatocytes, pH 7.4; pooled male Sprague-Dawley rat hepatocytes; read-out: Rat Hepatocyte t ½
Description: (§5) Example Compound 1 was tested for metabolic stability in rat metabolic assays using hepatocytes derived from pooled male Sprague-Dawley rats. Comparative Examples 2, 3 and 4 were also tested in the same assay. Compounds having good metabolic stability in the assay are expected to be especially useful as agents for preventing and/or treating cancer, by having a long half-life in human patients.
Frozen pooled rat hepatocytes obtained from LifeTechnologies were thawed and purified according to the manufacturer's instructions. The test compound (4 mM) in DMSO was diluted with acetonitrile to provide a 100 μM sub-stock then further diluted with pH7.4 Krebs-Henseleit buffer supplemented with CaCl2), NaHCO3, HEPES, fructose and glycine) to provide a 2 μM working solution. 25 μL of working solution was incubated at 37° C., treated with 25 μL of rat hepatocyte suspension (containing 1×10^6 cells/mL) and incubated at 37° C. with 5% CO2 level at 95% relative humidity. Wells were incubated for an appropriate time (0, 15, 30, 45, 60 and 75 min) then quenched with 250 μL of acetonitrile containing reference standards diltiazem, 7-ethoxycoumarin and propranolol). The plates were shaken, sonicated for 5 min then cooled to 4° C. until all sampling was complete. All plates were centrifuged at 4000 rpm for 20 min to pellet the debris. 110 μl supernatant was diluted 110 μL water and quantitated using LC-MS/MS.
The results were used to calculate the % Remaining of the test compound at time point t=100×˜[(AUC at time point t)/(AUC at T=0)]. A linear regression curve was fitted to a plot of natural logarithm (In) of AUC against time. The T-half (min)=0.693/slope

[7] = Human liver microsomes half life; assay type: in vitro ADME; conditions: pH 7.4, read-out: Human liver microsomes t ½
Description: as §5, with “an assay” for “rat metabolic assays”, “human liver microsomes.” for “hepatocytes derived from pooled male Sprague-Dawley rats.”, “3, 4, 5” for “3”, “6” for “4”, “patients” for “patients.”
Frozen human liver microsomes obtained from Corning, USA (cat #452117) were thawed and diluted with 100 mM of pH 7.4 phosphate buffer to give a 1 mg/ml solution. An NADPH regeneration system (NRS) was prepared as a solution containing 13 mM NADP, 33 mM glucose-6-phosphate, 33 mM MgCl2 and 4U/mL glucose-6-phosphate dehydrogenase in 100 mM of pH7.4 phosphate buffer. The test compound (4 mM) in DMSO was diluted with acetonitrile to provide a 100 μM sub-stock then further diluted with 100 mM of pH7.4 phosphate buffer to provide a 2 μM working solution. The liver microsome solution and NRS were incubated at 37° C. before use. To each well of the test plate was dispensed 60 μL of buffer, 50 μL of test compound solution and 10 μL of NRS. A reaction was initiated by addition of 40 μL of liver microsome solution. Wells were incubated for an appropriate time (0, 5, 10, 20, 30 and 60 min) then quenched with 300 μL of acetonitrile containing reference standards atenolol, propranolol, diclofenac, verapamil). All plates were centrifuged at 3500 rpm for 20 min at 15° C. to pellet the debris. 110 μL supernatant was diluted 110 μL water and quantitated using LC-MS/MS.
The results were used to calculate the % Remaining of the test compound at time point t=100×˜[(AUC at time point t)/(AUC at T=0)]. A linear regression curve was fitted to a plot of natural logarithm (In) of AUC against time. The T-half (min)=0.693/slope.

SMILES	pIC50 [1]	pEC50 ([2]; Homo sapiens, MRC5, 72 h)	pEC50 ([3]; Homo sapiens, MDA-MB-231, 72 h)	pEC50 ([4]; Homo sapiens)	half-life at 0.625 µM [7]	also measured
Cc1c(CCOc2cc(F)ccc2-c2ccc3ncc(CCN)n3c2)c(C(=O)N(C)C)nn1C [Comparative Example 1, 4-(2-{2-[3-(2-aminoethyl)imidazo[1,2-a]pyridin-6-yl]-5-fluorophenoxy}ethyl)-N,N,1,5-tetramethyl-1H-pyrazole-3-carboxamide]	8.70	6.35	6.55	6.61	–	pEC50 ([5]; Homo sapiens, BL-41, 72 h): 7.04
Cc1c(CCOc2cc(F)ccc2-c2ccc3ncc(CN(C)C)n3c2)c(C(=O)N(C)C)nn1C [Comparative Example 4, 4-[2-(2-{3-[(dimethylamino)methyl]imidazo[1,2-a]pyridin-6-yl}-5-fluorophenoxy)ethyl]-N,N,1,5-tetramethyl-1H-pyrazole-3-carboxamide]	~9.00 and 9.00	7.20	–	–	12 min	half-life at 1 µM [6]: 32 min
Cc1nn(C)c(C)c1CCOc1c(F)cccc1-c1ccc2c(c1)c(CN(C)C)nn2C [Comparative Example 6, 1-(5-(3-fluoro-2-(2-(1,3,5-trimethyl-1H-pyrazol-4-yl)ethoxy)phenyl)-1-methyl-1H-indazol-3-yl)-N,N-dimethylmethanamine]	–	7.42	–	–	4 min	–
CNC(=O)c1nn(C)c(C)c1CCOc1cc(Cl)ccc1-c1ccc2ncc(CCN)n2c1 [Example Compound 2, 4-(2-{2-[3-(2-aminoethyl)imidazo[1,2-a]pyridin-6-yl]-5-chlorophenoxy}ethyl)-N,1,5-trimethyl-1H-pyrazole-3-carboxamide]	–	> 7.40	> 7.15	> 7.15	–	pEC50 ([2]; 72 h): 7.43; pEC50 ([3]; 72 h): 7.35; pEC50 [4]: 7.16; pEC50 ([5]; 72 h): 7.62
Cc1c(CCOc2c(-c3ccc4ncc(CCN)n4c3)ccc(Cl)c2F)c(C(=O)N(C)C)nn1C [Example Compound 3, 4-(2-{6-[3-(2-aminoethyl)imidazo[1,2-a]pyridin-6-yl]-3-chloro-2-fluorophenoxy}ethyl)-N,N,1,5-tetramethyl-1H-pyrazole-3-carboxamide]	8.38	–	–	–	–	–
CNC(=O)c1nn(C)c(C)c1CCOc1c(-c2ccc3ncc(CCN)n3c2)ccc(Cl)c1F [Example Compound 4, 4-(2-{6-[3-(2-aminoethyl)imidazo[1,2-a]pyridin-6-yl]-3-chloro-2-fluorophenoxy}ethyl)-N,1,5-trimethyl-1H-pyrazole-3-carboxamide]	8.20	–	–	–	–	–
